Experimental data taken from ChEMBL document CHEMBL5331055, “Current medicinal chemistry strategies in the discovery of novel HIV-1 ribonuclease H inhibitors” (Eur J Med Chem, 2022).

How the values were obtained:
[1] = target: T1, Human immunodeficiency virus type 1 reverse transcriptase (Human immunodeficiency virus 1, UniProt Q72547); experiment: Inhibition of HIV-1 reverse transcriptase associated RNase H activity
[2] = target: T1, Human immunodeficiency virus type 1 reverse transcriptase; experiment: Non-competitive inhibition of HIV reverse transcriptase polymerase activity
in vitro = details: human, TZM-bl cells
Description: Cytotoxicity against human TZM-bl cells assessed as reduction in cell viability at 20 uM incubated for 3 days by XTT assay

[3] = Cytotoxicity against human MT4 cells assessed as reduction in cell viability by MTT assay; type: toxicity, cell-based
[4] = target: T1, Human immunodeficiency virus type 1 reverse transcriptase; experiment: Inhibition of HIV-1 RNase H
[5] = target: T1, Human immunodeficiency virus type 1 reverse transcriptase; experiment: Inhibition of N-terminal 6-his-tagged HIV-1 reverse transcriptase RNase H (427 to 560 residues) transformed in Escherichia coli […] (DE3) at pH 8.0 incubated for 4 hrs
[6] = target: T1, Human immunodeficiency virus type 1 reverse transcriptase; experiment: Inhibition of N-terminal 6-his-tagged HIV-1 reverse transcriptase RNase H (427 to 560 residues) transformed in Escherichia coli […] (DE3) at pH 7.4 incubated for 4 hrs
[7] = Inhibition of HIV-1 reverse transcriptase associated RNA dependent DNA polymerase activity incubated for 30 mins by multilabel counter plate reader method; parameters: species or system Human immunodeficiency virus 1
[8] = target: T2, Human immunodeficiency virus type 1 integrase (Human immunodeficiency virus 1, UniProt Q7ZJM1); experiment: Inhibition of HIV-1 integrase strand transfer activity
T2 sequence (Q7ZJM1 whole entry): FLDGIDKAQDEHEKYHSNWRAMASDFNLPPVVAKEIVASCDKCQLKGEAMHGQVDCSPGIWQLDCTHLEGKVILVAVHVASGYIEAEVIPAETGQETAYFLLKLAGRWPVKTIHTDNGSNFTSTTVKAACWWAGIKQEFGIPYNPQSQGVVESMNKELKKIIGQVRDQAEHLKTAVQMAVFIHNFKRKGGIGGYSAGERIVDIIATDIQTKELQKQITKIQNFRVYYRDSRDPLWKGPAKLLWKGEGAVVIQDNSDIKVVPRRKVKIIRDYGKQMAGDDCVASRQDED

[9] = target: T1, Human immunodeficiency virus type 1 reverse transcriptase; experiment: Inhibition of wild type HIV-1 reverse transcriptase associated DNA polymerase independent RNase H activity using 5-GTTTTCTTTTCCCCCCTGAC-3 Fluorescein/5CAAAAGAAAAGGGGGGACUG-3-Dabcyl RNA/DNA template-primer as substrate by multilabel counter plate reader method
[10] = Cytotoxicity against human TZM-bl cells assessed as reduction in cell viability incubated for 5 days by MTT assay; type: toxicity, cell-based; details: time 5 day
[11] = tested on: Human immunodeficiency virus 1; experiment: Antiviral activity against HIV-1 IIIB infected in human TZM-bl cells assessed as reduction in virus-induced cytopathic effect incubated for 5 days by MTT assay; type: functional, organism-based; details: Human immunodeficiency virus 1, IIIB, 120 h
[12] = target: T1, Human immunodeficiency virus type 1 reverse transcriptase; experiment: Inhibition of HIV-1 reverse transcriptase RNase H activity expressed in Escherichia coli M15 using 5-GTTTTCTTTTCCCCCCTGAC-3 Fluorescein/5CAAAAGAAAAGGGGGGACUG-3-Dabcyl RNA/DNA template-primer as substrate incubated for 1 hr by multilabel counter plate reader method
[13] = Inhibition of wild type HIV-1 RNA dependent DNA polymerase activity incubated for 30 mins by multilabel counter plate reader method; parameters: species or system Human immunodeficiency virus 1
[14] = target: T1, Human immunodeficiency virus type 1 reverse transcriptase; experiment: Inhibition of recombinant HIV-1 reverse transcriptase […] RNase H expressed in Escherichia coli M15 using 5-GTTTTCTTTTCCCCCCTGAC-3 Fluorescein/5CAAAAGAAAAGGGGGGACUG-3-Dabcyl RNA/DNA template-primer as substrate incubated for 1 hr by multilabel counter plate reader method
[15] = tested on: Human immunodeficiency virus 1; experiment: Antiviral activity against wild type HIV-1 infected in human MT4 cells assessed as inhibition of virus-induced cytopathic effect measured by MTT assay; type: functional, organism-based; details: Human immunodeficiency virus 1, MT4
[16] = tested on: Human immunodeficiency virus 1; experiment: Antiviral activity against HIV-1 infected in human MT4 cells assessed as inhibition of virus-induced cytopathic effect measured after 5 days by spectrophotometric MTT assay; type: functional, organism-based; details: Human immunodeficiency virus 1, MT4, 120 h
[17] = target: T1, Human immunodeficiency virus type 1 reverse transcriptase; experiment: Inhibition of HIV-1 reverse transcriptase associated RNase H using 5-GTTTTCTTTTCCCCCCTGAC-3 Fluorescein/5CAAAAGAAAAGGGGGGACUG-3-Dabcyl as substrate incubated for 1 hr
[18] = target: T2, Human immunodeficiency virus type 1 integrase; experiment: Inhibition of recombinant HIV-1 His-tagged LEDGF-dependent integrase preincubated for 1 hr followed by compound addition and measured after 90 mins by HTRF method
MT4 = experiment: Cytotoxicity against human MT4 cells; type: functional
[19] = tested on: Human immunodeficiency virus 1; experiment: Antiviral activity against wild type HIV-1 IIIB infected in human MT2 cells assessed as protection against virus-induced cytopathicity incubated for 5 days by MTT assay; type: functional, organism-based; details: Human immunodeficiency virus 1, IIIB, MT2, 120 h

For `O=C1Cc2ccc(-c3ccco3)cc2C(=O)N1O`, the IC50 [1] was 0.65 µM and the IC50 [2] was 2.6 µM.

With `CC1=C[C@H](c2c(O)ccc([C@@H]3CC(=O)c4c(O)cc(O)cc4O3)c2O)[C@@H](C(=O)c2ccc(O)cc2O)[C@H](c2ccc(O)cc2O)C1` [KUWANON L] the CC50 at 72 h (in vitro) was > 20 µM.

With `Nc1ccc(S(=O)(=O)N2CCN(C(=O)c3cc(O)c(O)c(O)c3)CC2)cc1` the CC50 [3] was > 19.9 µM.

`COC(=O)c1c(C)cc(O)c(=O)c(O)c1Br` gave an IC50 [4] of 0.13 µM.

Compound `O=C(O)Cc1cc(=O)oc2c(O)c(O)ccc12` has an IC50 [5] of 1.1 µM and an IC50 [6] of 4.8 µM.

Compound `COC(=O)c1cc(NC(=O)c2cc3cc([N+](=O)[O-])c(O)c(O)c3oc2=O)ccc1O` has an IC50 [7] of 6 µM.

`Cc1c(O)c([N+](=O)[O-])cc2cc(C(=O)Nc3ccc(O)c(C(=O)O)c3)c(=O)oc12` showed an IC50 [8] of 5 µM and an IC50 [7] of 6.7 µM.

Compound `Cn1cc(-c2ccc(-c3ccccc3)cc2)s/c1=N/N=C1\C(=O)Nc2ccc(Cl)cc21` has an IC50 [9] of 9.5 µM and an IC50 [4] of 10 µM.

`C=C(C)[C@@H]1CCc2c(c(C)cc(O)c(=O)c2O)C1` gave an IC50 [4] of 0.6 µM.

For `COc1cc(OC)cc(OC(=O)c2ccc(C(F)(F)F)nc2Nc2cc(Cl)ccc2C)c1`, the CC50 at 120 h [10] was > 50 µM, the IC50 [7] was 16.1 µM and the EC50 [11] was 5 µM. It also gave an IC50 [12] of 14 µM.

For `N#Cc1ccc(-c2c[nH]/c(=N\N=C3/C(=O)Nc4ccccc43)s2)cc1`, the IC50 [13] was 9.8 µM and the IC50 [14] was 1.3 µM.

`CCOC(=O)C(=O)CC(=O)/C=C/c1cccn1Cc1ccc(F)cc1` gave an EC50 [15] of 14 µM.

For `O=C(N/N=C/c1ccc(O)cc1O)c1cc(O)c(O)c(O)c1`, the EC50 [16] was 17 µM, the IC50 [17] was 1.7 µM and the IC50 [18] was 16 µM. The CC50 (MT4) was 61 µM.

In the case of `Nc1nn(C(=O)c2ccccc2)c(N)c1C(=S)Nc1ccc(Cl)cc1`, the IC50 [13] is reported as 17 µM, the IC50 [9] is reported as 7 µM and the IC50 [19] is reported as 25 µM.
